Measured values from ChEMBL document CHEMBL3046022, “Synthesis and pharmacological screening of some novel chalconyl derivatives of substituted phenyl semicarbazide” (2011).

Experiments:
Type in all cases: functional
Conditions in all cases: route intraperitoneal
Mus musculus [1] = assay: Anticonvulsant activity in Mus musculus albino (mouse) assessed as protection against maximal electroshock-induced seizures at 30 mg/kg, ip administered 30 min prior to electro shock-challenge measured for 2 min relative to control
Mus musculus [2] = assay: Anticonvulsant activity in Mus musculus albino (mouse) assessed as protection against maximal electroshock-induced seizures at 30 mg/kg, ip administered 30 min prior to electro shock-challenge measured for 2 min relative to phenytoin
Mus musculus [3] = assay: Anticonvulsant activity in Mus musculus albino (mouse) assessed as protection against maximal electroshock-induced seizures at 25 mg/kg, ip administered 30 min prior to electro shock-challenge measured for 2 min relative to control

Compound | Activity (Mus musculus [1]) [%] | Activity (Mus musculus [2]) [%] | Activity (Mus musculus [3]) [%]
COc1ccc(/C=C/C(=N\NC(=O)Nc2ccc(Br)cc2)c2ccccc2O)cc1 | 51.44 | 64.34 | 
CN(C)c1ccc(/C=C/C(=N\NC(=O)Nc2ccc(Br)cc2)c2ccccc2O)cc1 | 30.95 | 38.71 | 
O=C(N/N=C(\C=C\c1ccccc1O)c1ccc(O)cc1O)Nc1ccc(Br)cc1 | 72.93 | 91.21 | 
CN(C)c1ccc(/C=C/C(=N\NC(=O)Nc2ccc(Br)cc2)c2ccc(O)cc2O)cc1 | 24.27 | 30.35 | 
O=C(N/N=C(\C=C\c1ccccc1O)c1ccccc1O)Nc1ccc(Br)cc1 | 64.81 | 81.06 | 
O=C(N/N=C(\C=C\c1ccccc1O)c1cc(O)ccc1O)Nc1ccc(Br)cc1 | 75.16 | 94 | 
O=C(N/N=C(\C=C\c1ccc(O)cc1)c1cc(O)ccc1O)Nc1ccc(Br)cc1 | 76.61 | 95.82 | 
COc1ccc(/C=C/C(=N\NC(=O)Nc2ccc(Br)cc2)c2cc(O)ccc2O)cc1 | 39.75 | 49.71 | 
O=C(N/N=C(\C=C\c1ccccc1)c1ccccc1O)Nc1ccc(F)cc1 | 23.16 | 28.96 | 
O=C(N/N=C(\C=C\c1ccc(O)cc1)c1ccccc1O)Nc1ccc(F)cc1 | 70.15 | 87.74 | 
COc1ccc(/C=C/C(=N\NC(=O)Nc2ccc(F)cc2)c2ccccc2O)cc1 | 53.11 | 66.42 | 
CN(C)c1ccc(/C=C/C(=N\NC(=O)Nc2ccc(F)cc2)c2ccccc2O)cc1 | 36.19 | 45.26 | 
O=C(N/N=C(\C=C\c1ccccc1O)c1ccc(O)cc1O)Nc1ccc(F)cc1 | 74.05 | 92.62 | 
CN(C)c1ccc(/C=C/C(=N\NC(=O)Nc2ccc(F)cc2)c2ccc(O)cc2O)cc1 | 29.62 | 37.04 | 
O=C(N/N=C(\C=C\c1ccccc1O)c1ccccc1O)Nc1ccc(F)cc1 | 66.81 | 83.56 | 
O=C(N/N=C(\C=C\c1ccccc1O)c1cc(O)ccc1O)Nc1ccc(F)cc1 | 75.94 | 94.98 | 
O=C(N/N=C(\C=C\c1ccc(O)cc1)c1cc(O)ccc1O)Nc1ccc(F)cc1 | 79.73 | 99.72 | 
COc1ccc(/C=C/C(=N\NC(=O)Nc2ccc(F)cc2)c2cc(O)ccc2O)cc1 | 45.21 | 56.54 | 
O=C(N/N=C(\C=C\c1ccccc1)c1ccccc1O)Nc1ccc(Br)cc1 | 22.6 | 28.26 | 
O=C(N/N=C(\C=C\c1ccc(O)cc1)c1ccccc1O)Nc1ccc(Br)cc1 | 67.92 | 84.95 | 
O=C1NC(=O)C(c2ccccc2)(c2ccccc2)N1 [PHENYTOIN] |  |  | 79.95
